In ChEMBL document CHEMBL1131893, “Antitumor agents 201. Cytotoxicity of harmine and beta-carboline analogs” (1999):
Converted amounts (≈) assume the structure as drawn. The source made the active and inactive calls. The calls are words filed in the database; no cut-off is given here.

Tests used:
[1] = test system: KB; assay: In vitro cytotoxic activity was determined against epidermoid carcinoma of the nasopharynx (KB) cell line; type: functional; conditions: Homo sapiens, read-out: ED50 (the source's name)
[2] = test system: A549; assay: In vitro cytotoxic activity was determined against lung carcinoma (A549) cell line; type: functional; conditions: Homo sapiens, read-out: ED50 (the source's name)
[3] = test system: 1A9; assay: In vitro cytotoxic activity was determined against ovarian cancer (1A9) cell line; type: functional; conditions: Homo sapiens, read-out: ED50 (the source's name)
[4] = test system: CAKI-1; assay: In vitro cytotoxic activity was determined against renal cancer (CAKI-1) cell line; type: functional; conditions: Homo sapiens, read-out: ED50 (the source's name)
[5] = test system: SAOS-2; assay: In vitro cytotoxic activity was determined against osteosarcoma (SaOS-2) cell line; type: functional; conditions: Homo sapiens, read-out: ED50 (the source's name)
[6] = test system: SK-MEL-2; assay: In vitro cytotoxic activity was determined against melanoma cancer (SK-MEL-2) cell line; type: functional; conditions: Homo sapiens, read-out: ED50 (the source's name)
[7] = test system: MCF7; assay: In vitro cytotoxic activity against MCF-7 (human breast cancer) cell line.; type: functional; conditions: read-out: ED50 (the source's name)
[8] = test system: HCT-8; assay: In vitro cytotoxic activity was determined against ileocecal carcinoma (HCT-8) cell line; type: functional; conditions: Homo sapiens, read-out: ED50 (the source's name)
[9] = test system: HOS; assay: In vitro cytotoxic activity was determined against osteosarcoma ( HOS) cell line; type: functional; conditions: Homo sapiens, read-out: ED50 (the source's name)
[10] = test system: U-87 MG; assay: In vitro cytotoxic activity against U-87-MG (glioblastoma) cell line.; type: functional, U-87MG ATCC; conditions: Homo sapiens, read-out: ED50 (the source's name)
[11] = test system: HEL; assay: In vitro cytotoxic activity was determined against embryonic lung fibroblast (HEL) cell line; type: functional; conditions: Homo sapiens, read-out: ED50 (the source's name)
[12] = test system: SK-MEL-2; assay: In vitro cytotoxic activity was determined against melanoma cancer (SK-MEL-2) cell line; Not active; type: functional, cell-based; conditions: Homo sapiens
[13] = test system: HCT-8; assay: In vitro cytotoxic activity was determined against ileocecal carcinoma (HCT-8) cell line; Not active; type: functional, cell-based; conditions: Homo sapiens
[14] = test system: KB; assay: In vitro cytotoxic activity was determined against drug resistant tumor cell line KB-VIN (expressing P-glycoprotein); type: functional; conditions: Homo sapiens, read-out: ED50 (the source's name)
[15] = test system: KB; assay: In vitro cytotoxic activity was determined against drug resistant tumor cell line KB-CPT (pleotrophic mechanism including level of topoisomerase I); type: functional; conditions: Homo sapiens, read-out: ED50 (the source's name)
[16] = test system: KB; assay: In vitro cytotoxic activity was determined against drug resistant tumor cell line KB-7d (pleotrophic resistance including MRP multidrug resistant protein); type: functional; conditions: Homo sapiens, read-out: ED50 (the source's name)
[17] = test system: U-87 MG; assay: In vitro cytotoxic activity was determined against glioblastoma (U-87-MG) cell line; Not active; type: functional, cell-based; conditions: Homo sapiens; U-87MG ATCC
[18] = test system: MCF7; assay: In vitro cytotoxic activity was determined against breast cancer (MCF-7) cell line; Not active; type: functional, cell-based; conditions: Homo sapiens
[19] = test system: KB; assay: In vitro cytotoxic activity was determined against epidermoid carcinoma of the nasopharynx (KB) cell line; Not active; type: functional, cell-based; conditions: Homo sapiens
[20] = test system: CAKI-1; assay: In vitro cytotoxic activity was determined against renal cancer (CAKI-1) cell line; Not active; type: functional, cell-based; conditions: Homo sapiens

| SMILES | EC50 [1] [µg/mL] | EC50 [2] [µg/mL] | EC50 [3] [µg/mL] | EC50 [4] [µg/mL] | EC50 [5] [µg/mL] | EC50 [6] [µg/mL] | EC50 [7] [µg/mL] | EC50 [8] [µg/mL] | EC50 [9] [µg/mL] | EC50 [10] [µg/mL] | EC50 [11] [µg/mL] | ED50 [12] | ED50 [13] | EC50 [14] [µg/mL] | EC50 [15] [µg/mL] | EC50 [16] [µg/mL] | ED50 [17] | ED50 [18] | ED50 [19] | ED50 [20] |
| --- | --- | --- | --- | --- | --- | --- | --- | --- | --- | --- | --- | --- | --- | --- | --- | --- | --- | --- | --- | --- |
| CCCCCCCCC1NC(C(=O)O)Cc2c1[nH]c1cc(OC)ccc21 (stereo not drawn) | > 20 | > 20 | > 20 | > 20 | – | – | – | – | – | – | – | – | – | – | – | – | – | – | – | – |
| CC(=O)Oc1ccc2c(c1)[nH]c1c(C)nccc12 | 19.5 (≈ 81.2 µM) | 4.3 (≈ 17.9 µM) | 4.5 (≈ 18.7 µM) | 10.2 (≈ 42.5 µM) | > 20 | 5 (≈ 20.8 µM) | 7.5 (≈ 31.2 µM) | – | – | – | – | – | – | – | – | – | – | – | – | – |
| CCCCCCOc1ccc2c(c1)[nH]c1c(C)nccc12 | 2.4 (≈ 8.5 µM) | 4.4 (≈ 15.6 µM) | 1.9 (≈ 6.73 µM) | 2.2 (≈ 7.79 µM) | – | > 5 | 3.1 (≈ 11 µM) | 3.8 (≈ 13.5 µM) | 2.5 (≈ 8.85 µM) | 4.2 (≈ 14.9 µM) | – | – | – | – | – | – | – | – | – | – |
| COc1cc2[nH]c3c(C)nccc3c2cc1Br | 7.9 (≈ 27.1 µM) | 13.6 (≈ 46.7 µM) | 2.3 (≈ 7.9 µM) | 6.7 (≈ 23 µM) | – | > 20 | 14.6 (≈ 50.1 µM) | 16 (≈ 55 µM) | 6.5 (≈ 22.3 µM) | 14 (≈ 48.1 µM) | – | – | – | – | – | – | – | – | – | – |
| COc1ccc2c(c1)[nH]c1c(C)[n+](C)ccc12.[I-] | 7.2 | 0.9 | 7 | 8.9 | 8.2 | 8.4 | 6.2 | – | – | 6.2 | – | – | – | – | – | – | – | – | – | – |
| CCOc1ccc2c(c1)[nH]c1c(C)nccc12 | 10.2 (≈ 45.1 µM) | 5 (≈ 22.1 µM) | 8 (≈ 35.4 µM) | 9 (≈ 39.8 µM) | 20 (≈ 88.4 µM) | 9.5 (≈ 42 µM) | 5 (≈ 22.1 µM) | – | – | – | – | – | – | – | – | – | – | – | – | – |
| COc1ccc2c3c([nH]c2c1)C(C)N(N=O)CC3 (stereo not drawn) | 4.7 (≈ 19.2 µM) | > 10 | > 10 | > 10 | > 10 | > 10 | > 10 | – | – | > 10 | – | – | – | – | – | – | – | – | – | – |
| CCC[n+]1ccc2c([nH]c3cc(OC)ccc32)c1C.[I-] | 5 | 15 | 2 | 15 | – | – | – | – | – | – | 9.5 | – | – | – | – | – | – | – | – | – |
| Br.COc1ccc2c3c([nH]c2c1)C(C)=NCC3 | 9.7 | 9.8 | > 10 | > 10 | 6.8 | > 10 | 10 | – | – | 9.8 | – | – | – | – | – | – | – | – | – | – |
| Cc1nccc2c1[nH]c1cc(OC(C)C)ccc12 | 12.8 (≈ 53.3 µM) | 17 (≈ 70.7 µM) | 7.9 (≈ 32.9 µM) | 12.3 (≈ 51.2 µM) | – | – | 11.9 (≈ 49.5 µM) | – | 10.2 (≈ 42.4 µM) | 16.4 (≈ 68.2 µM) | – | inactive | inactive | – | – | – | – | – | – | – |
| CCCn1c2cc(OC)ccc2c2cc[n+](C)c(C)c21.[I-] | 1.8 | 4 | < 1.3 | 9.2 | – | 18 | > 20 | – | – | > 20 | 15 | – | – | > 40 | 3 | 35.5 | – | – | – | – |
| Cc1[nH]ccc2c1[nH]c1cc(=O)ccc12 [HARMOL] | 4.4 (≈ 22.2 µM) | 6.5 (≈ 32.8 µM) | 3.8 (≈ 19.2 µM) | 9.2 (≈ 46.4 µM) | – | – | 9.2 (≈ 46.4 µM) | – | – | 4.2 (≈ 21.2 µM) | – | – | – | – | – | – | – | – | – | – |
| Cc1cc(O)n2c(n1)nc1ccccc12 | > 10 | > 10 | > 10 | > 10 | > 10 | > 10 | > 10 | – | – | – | – | – | – | – | – | – | inactive | – | – | – |
| COc1ccc2c(c1)[nH]c1c(/C=C/c3ccc([N+](=O)[O-])cc3)nccc12 | 0.5 (≈ 1.45 µM) | 0.9 (≈ 2.61 µM) | 0.3 (≈ 0.869 µM) | 7 (≈ 20.3 µM) | 0.9 (≈ 2.61 µM) | 1 (≈ 2.9 µM) | 1.2 (≈ 3.47 µM) | – | – | 1.2 (≈ 3.47 µM) | – | – | – | – | – | – | – | – | – | – |
| Cc1nccc2c1[nH]c1ccccc12 [HARMAN] | 8.9 (≈ 48.8 µM) | 9.3 (≈ 51 µM) | 6.1 (≈ 33.5 µM) | 8 (≈ 43.9 µM) | – | > 20 | 19 (≈ 104 µM) | – | – | 19 (≈ 104 µM) | 9.8 (≈ 53.8 µM) | – | – | 17.5 (≈ 96 µM) | 15 (≈ 82.3 µM) | 16.5 (≈ 90.5 µM) | – | – | – | – |
| COc1ccc2c3ccn(C)c(C)c-3nc2c1 | 6.4 (≈ 28.3 µM) | 2.7 (≈ 11.9 µM) | 7 (≈ 30.9 µM) | 7.8 (≈ 34.5 µM) | 9.6 (≈ 42.4 µM) | 10 (≈ 44.2 µM) | 5.6 (≈ 24.7 µM) | – | – | 9 (≈ 39.8 µM) | – | – | – | – | – | – | – | – | – | – |
| Br.COc1cc2[nH]c3c(C)nccc3c2cc1Br | 3.5 | 3.9 | 1.9 | 7.3 | 6.8 | 5 | 5.6 | – | – | 6.7 | – | – | – | – | – | – | – | – | – | – |
| CCCCn1c2cc(OC)ccc2c2ccnc(C)c21 | 7.8 (≈ 29.1 µM) | 6 (≈ 22.4 µM) | 2.2 (≈ 8.2 µM) | 11 (≈ 41 µM) | – | – | 9.5 (≈ 35.4 µM) | > 20 | – | 12.3 (≈ 45.8 µM) | – | – | – | – | – | – | – | – | – | – |
| CCCCCCCCCCCCCCCCOc1ccc2c(c1)[nH]c1c(C)nccc12 | – | 5 (≈ 11.8 µM) | 8 (≈ 18.9 µM) | – | – | – | – | – | 5 (≈ 11.8 µM) | – | – | – | inactive | – | – | – | – | inactive | inactive | inactive |
| CCC(CC)C1NC(C(=O)O)Cc2c1[nH]c1cc(OC)ccc21 (stereo not drawn) | 20 (≈ 63.2 µM) | > 20 | > 20 | > 20 | – | – | – | – | – | – | > 20 | – | – | – | – | – | – | – | – | – |
| CCn1c2cc(OC)ccc2c2ccnc(C)c21 | 1.8 (≈ 7.49 µM) | 4.2 (≈ 17.5 µM) | 1.8 (≈ 7.49 µM) | 7.4 (≈ 30.8 µM) | – | – | 5.3 (≈ 22.1 µM) | > 20 | – | 7.4 (≈ 30.8 µM) | – | – | – | – | – | – | – | – | – | – |
| Cc1nccc2c1[nH]c1cc(OC(=O)C34CCC(C)(C(=O)O3)C4(C)C)ccc12 (stereo not drawn) | > 10 | 17 (≈ 44.9 µM) | 19.5 (≈ 51.5 µM) | > 20 | > 20 | > 20 | 20 (≈ 52.9 µM) | – | – | – | – | – | – | – | – | – | – | – | – | – |
| CCCCCCCCCCOc1ccc2c(c1)[nH]c1c(C)nccc12 | 2 (≈ 5.91 µM) | 1.2 (≈ 3.55 µM) | 1.4 (≈ 4.14 µM) | 5 (≈ 14.8 µM) | – | – | 3.8 (≈ 11.2 µM) | 4.1 (≈ 12.1 µM) | 6.7 (≈ 19.8 µM) | 5.4 (≈ 16 µM) | – | – | – | – | – | – | – | – | – | – |
| COc1ccc2c(c1)[nH]c1c(C)nccc12 [HARMINE] | 2.2 (≈ 10.4 µM) | 2.4 (≈ 11.3 µM) | 1.6 (≈ 7.54 µM) | 1.9 (≈ 8.95 µM) | – | 18.5 (≈ 87.2 µM) | 10.5 (≈ 49.5 µM) | – | – | 14.5 (≈ 68.3 µM) | 1.9 (≈ 8.95 µM) | – | – | 2.5 (≈ 11.8 µM) | 4.3 (≈ 20.3 µM) | 3.7 (≈ 17.4 µM) | – | – | – | – |
| COc1ccc2c3ccnc(C)c3n(C)c2c1 | 2.2 (≈ 9.72 µM) | 4.2 (≈ 18.6 µM) | 1.8 (≈ 7.95 µM) | 5 (≈ 22.1 µM) | – | – | 4.3 (≈ 19 µM) | > 20 | – | 7.8 (≈ 34.5 µM) | – | – | – | – | – | – | – | – | – | – |
| COS(=O)(=O)O.Cc1nccc2c1[nH]c1ccccc12 | 10.5 | > 20 | > 20 | > 20 | – | – | – | – | – | – | > 20 | – | – | – | – | – | – | – | – | – |
